According to PMC6278284, “Synthesis of Jacaranone-Derived Nitrogenous Cyclohexadienones and Their Antiproliferative and Antiprotozoal Activities” (Molecules, 2018):
Where “and” joins values, the source holds several entries; their conditions need not be identical. Equal values may be shown once.

Key:
[1] = system: CCRF-CEM leukemia cells; experiment: XTT viability assay, CCRF-CEM; assay type: cell-based; conditions: Homo sapiens, 72 h, read-out: metabolic active cells in % of control
Description: (§1) Human CCRF-CEM leukemia and MDA-MB-231 breast cancer cells lines were kept in RPMI1640 medium (Gibco®, ThermoFisher Scientific Inc., New York, NY, USA), supplemented with 2 mM L-glutamine (Gibco®), 10% heat-inactivated foetal bovine serum (FBS, Gibco®), 100 units/mL Penicillin (PAA), and 100 µg/mL Streptomycin (Gibco®) (1% Pen/Strep). HCT-116 and U251 cells were cultured in high-glucose Dulbecco’s Modified Eagle Medium (DMEM, Gibco®) containing 2 mM L-glutamine, 10% FBS, and 1% Pen/Strep. MRC-5 cells were grown in Minimum Essential Medium (MEM, Gibco®) supplemented with 2 mM L-glutamine, 10% FBS, and 1% Pen/Strep. All cells were kept in a humidified 5% CO2 atmosphere at 37 °C and passaged at 90% confluence.
(§2) A Cell Proliferation Kit II (XTT) was purchased from Sigma-Aldrich and performed as described previously and in accordance with the manufacturer’s protocol. In brief, adherent cell lines were seeded at a density of 50,000 cells/mL or 100,000 cells/mL (MRC-5) in 96 well plates (100 µL, flat bottom) and grown for 24 h before test compounds were added. Suspension cells (CCRF-CEM) were seeded at 100,000 cells/mL and test compounds were added immediately. After 72 h, XTT solution was added for another 90 min or 4 h (CCRF-CEM cells) and absorbance was measured at 490 nm with a reference wave length of 650 nm (Hidex Sense Microplate Reader 425-301, Hidex, Turku, Finland). Results are expressed as a percentage of the vehicle-treated (0.5% DMSO) control cells. Vinblastine served as the positive control (0.01 µg/mL).

[2] = system: MDA-MB-231 breast cancer cells; experiment: XTT viability assay, MDA-MB-231; assay type: cell-based; conditions: Homo sapiens, 72 h, read-out: metabolic active cells in % of control; for viability at 5 µg/mL: MDA-MB-231, 5 µg/mL; for viability at 50 µg/mL: MDA-MB-231, 50 µg/mL
Description: as §1, §2

[3] = system: U251 glioblastoma cells; experiment: XTT viability assay, U251; assay type: cell-based; conditions: Homo sapiens, U-251, 72 h, read-out: metabolic active cells in % of control; for viability at 5 µg/mL: U251, 5 µg/mL; for viability at 50 µg/mL: U251, 50 µg/mL
Description: as §1, §2

[4] = system: L6 cells rat skeletal myoblasts; experiment: Cytotoxicity against L6 cells (Alamar Blue); assay type: cell-based; conditions: L6 rat skeletal myoblasts, 72 h; read-out: Cyt. L6 IC50
Description: Assays were performed in 96-well microtiter plates, each well containing 100 μL of RPMI 1640 medium supplemented with 1% L-glutamine (200 mM) and 10% foetal bovine serum, and 4000 L6 cells (a […] cell line derived from rat skeletal myoblasts). Serial drug dilutions of 11 threefold dilution steps covering a range from 100 to 0.002 μg/mL were prepared. After 72 h of incubation, the plates were inspected under an inverted microscope to assure growth of the controls and sterile conditions. 10 μL of Alamar Blue solution was then added to each well and the plates incubated for another 2 h. Then, the plates were read with a Spectramax Gemini XS microplate fluorometer (Molecular Devices Cooperation, Sunnyvale, CA, USA) using an excitation wavelength of 536 nm and an emission wavelength of 588 nm. The IC50 values were calculated by linear regression from the sigmoidal dose inhibition curves using the microplate reader software, Softmax Pro (Molecular Devices Cooperation, Sunnyvale, CA, USA). Podophyllotoxin (Sigma P4405) was used as the control.

[5] = system: human (cancer) cell lines (CCRF-CEM, MDA-MB-231, HCT-116, U251, MRC-5); experiment: XTT viability assay, statements on the whole panel of cell lines; assay type: cell-based; conditions: 72 h; for metabolic activity, % of the control: in all (13i) or almost all (13b) cell lines; for overall cytotoxicity (in words): 50 µg/mL, panel of cell lines
Description: All synthesized dienones (13a–j, 14a, 14c, and 15) were evaluated for their cytotoxic activity against human (cancer) cell lines. To cover a range of different tumor entities, we used a panel of cancer cell lines (CCRF-CEM leukemia, MDA-MB-231 breast cancer, HCT-116 colon cancer, and U251 glioblastoma cells) as well as a non-tumorigenic human cell line (MRC-5 lung fibroblasts). All derivatives were screened for their cytotoxicity at 5 µg/mL and 50 µg/mL to cover a broad concentration range. Cells were exposed to the derivatives for 72 h. […] No clear correlation between cytotoxic and antiprotozoal effects could be drawn. […] Human CCRF-CEM leukemia and MDA-MB-231 breast cancer cells lines were kept in RPMI1640 medium (Gibco®, ThermoFisher Scientific Inc., New York, NY, USA), supplemented with 2 mM L-glutamine (Gibco®), 10% heat-inactivated foetal bovine serum (FBS, Gibco®), 100 units/mL Penicillin (PAA), and 100 µg/mL Streptomycin (Gibco®) (1% Pen/Strep). HCT-116 and U251 cells were cultured in high-glucose Dulbecco’s Modified Eagle Medium (DMEM, Gibco®) containing 2 mM L-glutamine, 10% FBS, and 1% Pen/Strep. MRC-5 cells were grown in Minimum Essential Medium (MEM, Gibco®) supplemented with 2 mM L-glutamine, 10% FBS, and 1% Pen/Strep. All cells were kept in a humidified 5% CO2 atmosphere at 37 °C and passaged at 90% confluence. A Cell Proliferation Kit II (XTT) was purchased from Sigma-Aldrich and performed as described previously and in accordance with the manufacturer’s protocol. In brief, adherent cell lines were seeded at a density of 50,000 cells/mL or 100,000 cells/mL (MRC-5) in 96 well plates (100 µL, flat bottom) and grown for 24 h before test compounds were added. Suspension cells (CCRF-CEM) were seeded at 100,000 cells/mL and test compounds were added immediately. After 72 h, XTT solution was added for another 90 min or 4 h (CCRF-CEM cells) and absorbance was measured at 490 nm with a reference wave length of 650 nm (Hidex Sense Microplate Reader 425-301, Hidex, Turku, Finland). Results are expressed as a percentage of the vehicle-treated (0.5% DMSO) control cells. Vinblastine served as the positive control (0.01 µg/mL).

Row | Structure (SMILES) | viability at 5 µg/mL [1] | viability at 50 µg/mL [1] | melting point | viability at 5 µg/mL [2] | viability at 50 µg/mL [2] | viability at 5 µg/mL [3] | viability at 50 µg/mL [3] | IC50 [4] | metabolic activity, % of the control ([5]; 5 µg/mL) | overall cytotoxicity (in words) [5] | cytotoxicity against most cell lines (in words) ([5]; 5 µg/mL)
1 | O=C1C=CC(O)(CCN2C(=O)C=CC2=O)C=C1 [Compound 13b, N-[2-(1-Hydroxy-4-oxocyclohexa-2,5-dien-1-yl)ethyl]maleimide] | -1.08% | 3.46% | 151 to 152 °C | 1.71% | 6.61% | 95.2% | -0.41% | 26.8 µM | below 40 % of the control |  | 
2 | O=C1C=CC(O)(CCN2C(=O)c3cccnc3C2=O)C=C1 [Compound 13f, N-[2-(1-Hydroxy-4-oxocyclohexa-2,5-dien-1-yl)ethyl]pyridine-2,3-dicarboximide] | 99.8% | 21.7% | 167 to 168 °C | 112% | 23% | 91.8% | 93.7% | 153 µM |  | negligible | 
3 | O=C1C=CC(O)(CCN2C(=O)COCC2=O)C=C1 [Compound 13g, N-[2-(1-Hydroxy-4-oxocyclohexa-2,5-dien-1-yl)ethyl]morpholine-3,5-dione] | 86.9% | 8.05% | 142 to 143 °C | 104% | 7.63% | 94.7% | 65.6% | 77.5 µM |  | negligible | 
4 | O=C1C=CC(O)(CCN2C(=O)C3=C(CCCC3)C2=O)C=C1 [Compound 13i, N-[2-(1-Hydroxy-4-oxocyclohexa-2,5-dien-1-yl)ethyl]-3,4,5,6-tetrahydrophthalimide] | 2.26% | 1.23% |  | 32.4% | 16.6% | 15.9% | 0% | 3.52 µM | below 40 % of the control |  | 
5 | O=C1C=CC(O)(CCN2C(=O)C3CC=CCC3C2=O)C=C1 (centres unmarked) [Compound 13j, N-[2-(1-Hydroxy-4-oxocyclohexa-2,5-dien-1-yl)ethyl]-1,2,3,6-tetrahydrophthalimide] | 89.9% | 15.4% | 145 to 146 °C | 87.7% | 89% | 96.5% | 76.7% | 8.04 µM |  | negligible | 
6 | O=C1C=CC(O)(CCN2Cc3ccccc3C2)C=C1 [Compound 14a, N-[2-(1-Hydroxy-4-oxocyclohexa-2,5-dien-1-yl)ethyl]isoindoline] | 94.6% | 58% | 103 to 104 °C and 103 °C | 95% | 92.5% | 99.5% | 95.5% | 2.81 µM |  | negligible | 
7 | O=C1C=CC(O)(CCN2CCOCC2)C=C1 [Compound 14c, N-[2-(1-Hydroxy-4-oxocyclohexa-2,5-dien-1-yl)ethyl]morpholine] | 22.8% | -0.18% | 98 to 99 °C | 56.8% | 4.33% | 68.3% | 1.11% | 3.46 µM |  |  | only minor cytotoxicity
